Measured values published in patent US9701670B2, “Pyrazolyl-ureas as kinase inhibitors” (RESPIVERT LIMITED, priority 2013, dated 2017).

Tests used:
[1] = test system: β-catenin in d-U937 cells; experiment: (m) Accumulation of β catenin in d-U937 cells; format: cell-based, human
Method in brief: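 PMA-differentiated U937 macrophage-type cells (100 ng/mL, 48–72 hr) were exposed to test compound or vehicle for 18 hr, then fixed. β-catenin was measured by cell ELISA (HRP/TMB, OD450-655) and normalised to crystal violet OD595. Signals below 15% of the standard control were designated "-ve".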

[2] = biological target: T1, p38 MAPKα isoform (MAPK14) (Homo sapiens (Human), UniProt Q16539); experiment: p38 MAPKα enzyme inhibition (FRET, Z-LYTE), Method 1; format: biochemical; details: Method 1 (Table 4a1)
T1 sequence (Q16539 whole entry, canonical isoform): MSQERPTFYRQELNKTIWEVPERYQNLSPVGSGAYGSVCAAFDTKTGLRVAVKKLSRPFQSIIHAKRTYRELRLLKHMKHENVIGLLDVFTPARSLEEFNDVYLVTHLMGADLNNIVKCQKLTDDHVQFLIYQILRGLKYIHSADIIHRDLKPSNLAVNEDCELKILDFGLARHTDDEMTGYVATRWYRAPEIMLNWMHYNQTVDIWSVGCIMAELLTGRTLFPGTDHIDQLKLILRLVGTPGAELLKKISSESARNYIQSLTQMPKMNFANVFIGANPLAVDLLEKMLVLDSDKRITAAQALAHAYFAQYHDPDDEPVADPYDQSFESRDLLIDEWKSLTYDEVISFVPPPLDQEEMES

[3] = test system: Differentiated U937 cells; experiment: (l) Cell viability: MTT assay; format: cell-based, human; details: 1 μg/mL
Method in brief: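 Differentiated U937 cells were exposed to compound at 1 or 10 μg/mL either 4 h in 5% FCS RPMI1640 or 24 h in 10% FCS RPMI1640, then given MTT for 1 h, DMSO-solubilised and read at 550 nm. Percent viability loss versus 0.5% DMSO vehicle; apparent gains appear negative.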

[4] = biological target: T1, p38 MAPKα isoform (MAPK14); experiment: p38 MAPKα enzyme inhibition (FRET, Z-LYTE), Method 2; format: biochemical; details: Method 2, different laboratory (Table 4a2)
Syk = Syk (Homo sapiens (Human), UniProt P43405); experiment: Syk enzyme inhibition (FRET, Z-LYTE); format: biochemical; details: different laboratory (Table 4a2)
Experimental: The enzyme inhibitory activities of compounds disclosed herein are determined by FRET using synthetic peptides labelled with both donor and acceptor fluorophores (Z-LYTE, Invitrogen Ltd., Paisley, UK).
The relevant enzyme (3000 ng/mL or 2000 ng/mL respectively, 2.5 μL) is incubated with the test compound (either 4 μg/mL, 0.4 μg/mL, 0.04 μg/mL, or 0.004 μg/mL, 2.5 μL each) for 2 hr at RT. The FRET peptides (8 μM, 2.5 μL), and appropriate ATP solutions (2.5 μL, 800 μM for c-Src, and 60 μM ATP for Syk) are then added to the enzymes/compound mixtures and incubated for 1 hr. Development reagent (protease, 5 μL) is added for 1 hr prior to detection in a fluorescence microplate reader (Varioskan® Flash, ThermoFisher Scientific).
In all cases, the site-specific protease cleaves non-phosphorylated peptide only and eliminates the FRET signal. Phosphorylation levels of each reaction are calculated using the ratio of coumarin emission (donor) over fluorescein emission (acceptor), for which high ratios indicate high phosphorylation and low ratios indicate low phosphorylation levels.

Balb/c mice = experiment: (A) LPS-induced neutrophil accumulation in mice; format: in vivo, mouse; details: mice, test substance at 0.2 mg/mL, dosed 8 hr pre-LPS challenge; for Neutrophil numbers in BAL: +/−SEM, N = 8
Experimental: […] At T=0, mice are placed into an exposure chamber and exposed to LPS (7.0 mL, 0.5 mg/mL solution in PBS) for 30 min). After a further 8 hr the animals are anesthetized, their tracheas cannulated and BALF extracted by infusing and then withdrawing from their lungs 1.0 mL of PBS via the tracheal catheter. Total and differential white cell counts in the BALF samples are measured using a Neubaur haemocytometer. Cytospin smears of the BALF samples are prepared by centrifugation at 200 rpm for 5 min at RT and stained using a DiffQuik stain system (Dade Behring). Cells are counted using oil immersion microscopy. Data for neutrophil numbers in BAL are shown as mean±S.E.M. (standard error of the mean). The percentage inhibition of neutrophil accumulation is calculated for each treatment relative to vehicle treatment.

HRV16 = experiment: (j) HRV16 induced CPE in MRC5 cells; format: cell-based; details: HRV-16
Experimental: The supernatants are aspirated, and then fresh media added followed by incubation for 4 days. Where appropriate, cells are pre-incubated with compound or DMSO for 2 hr, and the compounds and DMSO added again after washout of the virus.
After washing, 1% SDS in distilled water (100 μL) is added to each well, and the plates are shaken lightly for 1-2 hr prior to reading the absorbance at 660 nm. The percentage inhibition for each well is calculated. The IC50 value is calculated from the concentration-response curve generated by the serial dilutions of the test compounds.

HCK = experiment: Enzyme binding assay (Kinomescan)
Experimental: These assays were conducted by DiscoverX (formerly Ambit; San Diego, Calif.). The percentage inhibition produced by incubation with a test compound is calculated relative to the non-inhibited control.

IC50 [2] [nM] | IC50 [4] [nM] | IC50 (Syk) [nM] | % Inhibition of kinase binding at 500 nM HCK (HCK) [%] | Structure (SMILES) | β-catenin inductive effect relative to the effect produced by the Reference Compound at 1 μg/mL ([1]; test concentration of 10 μg/mL, found to be negative) | Cell viability at time point in d-U937 cells 4 h [3] | Cell viability at time point in d-U937 cells 24 h [3] | % inhibition of neutrophil numbers in BAL (Balb/c mice) [%] | Neutrophil numbers in BAL (Balb/c mice) | IC50 (HRV16) [nM] | % β-catenin induction ([1]; 1 μg/mL test compound) [%]
49 | 174 | 43 | – | COc1cc(Nc2nccc(Oc3ccc(NC(=O)Nc4cc(C(F)(F)C(F)(F)F)nn4-c4ccc(C)cc4)c4ccccc34)n2)cc(C(=O)NCCN2CCOCC2)c1 [Example 9, 3-Methoxy-N-(2-morpholinoethyl)-5-((4-((4-(3-(3-(perfluoroethyl)-1-(p-tolyl)-1H-pyrazol-5-yl)ureido)naphthalen-1-yl)oxy)pyrimidin-2-yl)amino)benzamide] | less than 15% | −ve (−ve and +ve indicate that the value is below and above respectively, the no significant effect threshold, defined as 30% inhibition at 1 μg/mL at the time point indicated.) | −ve (−ve and +ve indicate that the value is below and above respectively, the no significant effect threshold, defined as 30% inhibition at 1 μg/mL at the time point indicated.) | 51 | 8.0 ± 1.6 ×10^5/mL | – | –
2 | 37 | – | – | COc1ccc(-n2nc(C(C)C)cc2NC(=O)Nc2ccc(Oc3ccnc(Nc4cc(OC)cc(C(=O)NCCN5CCOCC5)c4)n3)c3ccccc23)cc1 [Example 53, 3-((4-((4-(3-(3-isopropyl-1-(4-methoxyphenyl)-1H-pyrazol-5-yl)ureido)naphthalen-1-yl)oxy)pyrimidin-2-yl)amino)-5-methoxy-N-(2-morpholinoethyl)benzamide] | – | −ve (−ve and +ve indicate that the value is below and above respectively, the no significant effect threshold, defined as 30% inhibition at 1 μg/mL at the time point indicated.) | −ve (−ve and +ve indicate that the value is below and above respectively, the no significant effect threshold, defined as 30% inhibition at 1 μg/mL at the time point indicated.) | – | – | 2 | –
– | – | – | 100 | COCC(=O)Nc1cc(Oc2ccc(NC(=O)Nc3cc(C(C)(C)C)nn3-c3ccc(C)cc3)c3ccccc23)ccn1 [Reference Compound, N-(4-(4-(3-(3-tert-butyl-1-p-tolyl-1H-pyrazol-5-yl)ureido)naphthalen-1-yloxy)pyridin-2-yl)-2-methoxyacetamide, reference compound] | – | −ve (−ve and +ve indicate that the value is below and above respectively, the no significant effect threshold, defined as 30% inhibition at 1 μg/mL at the time point indicated.) | +ve (−ve and +ve indicate that the value is below and above respectively, the no significant effect threshold, defined as 30% inhibition at 1 μg/mL at the time point indicated.) | 60 | 5.6 ± 0.86 ×10^5/mL | – | 208
